The values below come from US11666642B2, “PDE5 compositions and methods for immunotherapy” (Obsidian Therapeutics, Inc., priority 2017, dated 2023).

The subject of one test is NIH 3T3 cells. Description: Western blot analysis using a GFP antibody, hPDE5 C terminal mutants. The conditions noted are these: hPDE5 mutant construct, 24 hours and 48 hours, vs untreated cells. (In general: A western blot detects proteins with antibodies after separation by electrophoresis.)
A further test relates to HEK 293 cells. Kind of test: CAR surface expression by Protein L staining, dose and time dependence. The format is cell-based. The conditions noted are these: OT-CD19-053 in HEK 293 cells, 24 hours of ligand. As for the experimental part: The dose dependent regulation of OT-CD19-052 and OT-CD19-053 was measured in HEK 293 cells transfected with 2 ug DNA and stably selected using 2 ug/ml puromycin.
Cells were also treated with ligand for varying durations of time with ligand concentrations shown in Table 45C and Protein L expression was measured using FACS.

The next test concerns HEK293T cells. Kind of test: Effect of linker on DD regulation of IL15-IL15Ra, FACS using the HA antibody. The class given is cell-based. The following applies: for Stabilization ratio: 1 μM Vardenafil vs DMSO control; for % HA positive cells, Vardenafil: 1 μM Vardenafil, 24 hours; for % HA positive cells, Control: DMSO control. As for the experimental part: The effect of the type of linker used and the length of the linker on the regulation of the expression of the payload was tested. IL15-IL15Ra fusion constructs were linked to the hPDE5 (R732L) DD using GSGSGS (SEQ ID NO. 8330) as the linker (as in OT-IL15-111), or […] (SEQ ID NO. 8331) as the linker (as in OT-IL15-112) or using […] (SEQ ID NO. 8332) as the linker (as in OT-IL15-113). The IL15 portion of the construct was tagged with a Flag tag while the IL15Ra portion was tagged with a HA tag. These tags allow both the components of the construct to be tracked individually in experiments. […] The properties of the DDs regulated IL15-IL15Ra payloads were analyzed in the presence and absence of ligands via FACS using the HA antibody as previously described.

Source text for NIH 3T3 cells: All comparisons were made against cells that were not treated with either ligand.

Turning to `CCCc1nn(C)c2c(=O)[nH]c(-c3cc(S(=O)(=O)N4CCN(C)CC4)ccc3OCC)nc12` [Sildenafil], the “GFP protein levels by western blot” value in the test on NIH 3T3 cells (0.1 μM ligand) is reported as “modest stabilization of GFP protein levels”; in the test on NIH 3T3 cells (1 μM ligand), “stabilization of GFP increased”. Moreover, the EC50 with HEK 293 cells was determined as 1500 nM.

`CCCc1nc(C)c2c(=O)[nH]c(-c3cc(S(=O)(=O)N4CCN(CC)CC4)ccc3OCC)nn12` [Vardenafil] gave an EC50 with HEK 293 cells (Homo sapiens, HEK293) of 25 nM.

Regarding “OT-IL15-111: IL15-IL15Ra fusion linked to hPDE5 (R732L) DD using GSGSGS linker”, in the test on HEK293T cells, the Stabilization ratio was 1.69; the “% HA positive cells, Vardenafil” value is 63.2%; the “% HA positive cells, Control” value came out at 37.5%.

Turning to “OT-IL15-112: IL15-IL15Ra fusion linked to hPDE5 (R732L) DD using GSGSGSGS linker”, in the test on HEK293T cells, the “% HA positive cells, Vardenafil” value stood at 74.6% and the “% HA positive cells, Control” value worked out at 41.6%.

For the molecule “OT-IL15-113: IL15-IL15Ra fusion linked to hPDE5 (R732L) DD using GSGSGGGSGS linker”, in the test with HEK293T cells, the Stabilization ratio is recorded as 1.65; the “% HA positive cells, Vardenafil” value is 69.1%; the “% HA positive cells, Control” value was found to be 42%.

The EC50 is the concentration needed to bring the measured effect to its halfway point. High values mean a need for much substance, low ones an effect from little substance.
